In patent US8884023B2, “Pyrano [3,2-D][1,3]thiazole as glycosidase inhibitors” (priority 2011, dated 2014):
Like-named read-outs stand apart in the source and are kept apart here.

What was measured:
[1] = target: T1, O-GlcNAcase (UniProt Q8VIJ5); format: cell-based
T1 sequence (Q8VIJ5 1-916): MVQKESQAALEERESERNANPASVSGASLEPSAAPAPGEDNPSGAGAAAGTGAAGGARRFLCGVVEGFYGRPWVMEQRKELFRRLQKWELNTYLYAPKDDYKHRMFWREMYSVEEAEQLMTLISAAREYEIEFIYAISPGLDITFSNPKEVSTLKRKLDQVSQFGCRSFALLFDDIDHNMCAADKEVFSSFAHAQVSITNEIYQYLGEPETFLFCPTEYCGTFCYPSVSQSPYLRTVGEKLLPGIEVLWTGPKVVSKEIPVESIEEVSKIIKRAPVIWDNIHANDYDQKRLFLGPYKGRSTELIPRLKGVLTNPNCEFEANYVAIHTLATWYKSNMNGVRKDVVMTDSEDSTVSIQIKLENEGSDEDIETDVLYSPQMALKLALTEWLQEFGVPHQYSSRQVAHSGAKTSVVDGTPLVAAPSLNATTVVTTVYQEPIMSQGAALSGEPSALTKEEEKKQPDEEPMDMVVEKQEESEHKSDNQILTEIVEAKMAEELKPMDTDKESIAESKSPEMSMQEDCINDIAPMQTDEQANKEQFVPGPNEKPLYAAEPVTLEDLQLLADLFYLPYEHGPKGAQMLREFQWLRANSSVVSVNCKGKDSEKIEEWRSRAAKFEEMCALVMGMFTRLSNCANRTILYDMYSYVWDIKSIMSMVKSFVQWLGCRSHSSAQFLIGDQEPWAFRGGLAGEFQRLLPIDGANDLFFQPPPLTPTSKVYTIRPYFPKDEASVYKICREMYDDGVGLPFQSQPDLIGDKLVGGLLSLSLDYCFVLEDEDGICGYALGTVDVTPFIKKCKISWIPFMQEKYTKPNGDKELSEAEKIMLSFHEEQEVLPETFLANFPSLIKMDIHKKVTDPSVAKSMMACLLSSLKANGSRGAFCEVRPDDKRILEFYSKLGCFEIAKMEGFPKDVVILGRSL
Source text: Assay for the Determination of Cellular Activity for Compounds that Inhibit O-GlcNAcase Activity
Inhibition of O-GlcNAcase, which removes O-GlcNAc from cellular proteins, results in an increase in the level of O-GlcNAcylated proteins in cells. An increase in the O-GlcNAcylation of cellular proteins can be measured by an antibody, such as CTD110.6, that binds O-GlcNAcylated proteins. The amount of O-GlcNAcylated protein can be determined by the enzyme linked immunoabsorbant assay (ELISA) technique.
Cell lines, such as rat B35, rat PC-12 and human SH-SY5Y cells, expressing endogenous levels of O-GlcNAcase, could be utilized. Cells were plated in 96-well plates at a density of approximately 10,000 cells/well. Compounds to be tested were dissolved in DMSO as 10 mM stock solution, and then diluted first with DMSO and then culture media using the Bravo workstation. Cells were treated with diluted compounds for approximately 16 hours. […] To prepare a cell lysate, the media from compound treated cells were removed, and the cells were washed once with Dulbecco's phosphate buffered saline (DPBS) and then lysed for 30 minutes in 100 μl/well of ice cold RIPA buffer containing a protease inhibitor cocktail.
The ELISA portion of the assay was performed in EIA/RIA plates that were coated overnight at 4 C with 80 μl/well of cell lysate. The following day the wells were washed 6 times with 200 μl of wash buffer (0.05% Tween20 in DPBS). The wells were blocked with 200 μl blocking buffer (1% BSA, 0.05% Tween20 in DPBS) for 1 h at room temperature. Each well was then washed 6 times with 200 μl of wash buffer. The anti-O-GlcNAc antibody CTD110.6 (Covance, Princeton, N.J.) was added at 100 μl/well at a concentration of 10 μg/ml. The plates were incubated for 1 h at room temperature. The wells were then washed 6 times with 200 μl/well of wash buffer. To detect the amount of CTD110.6 bound to the cell lysate, alkaline phosphatase conjugated goat anti-mouse IgM (diluted 1:500 in blocking buffer) was added at 100 μl/well and incubated for 45 min at room temperature. Each well was then washed 6 times with 200 μl/well of wash buffer. PNPP tablets dissolved in diethanolamine substrate buffer and 100 μl/well were added as detection reagent.
The amount of O-GlcNAcylated protein, as detected by the ELISA assay, was plotted for each concentration of test compound using standard curve fitting algorithms for sigmoidal dose response curves. The values for a four parameter logistic curve fit of the data were determined, with the inflection point of the curve being the potency value for the test compound.

[2] = target: T2, His-Tagged hOGA (human O-GlcNAcase) (Homo sapiens, UniProt O60502); experiment: biochemical
T2 sequence (O60502 1-916): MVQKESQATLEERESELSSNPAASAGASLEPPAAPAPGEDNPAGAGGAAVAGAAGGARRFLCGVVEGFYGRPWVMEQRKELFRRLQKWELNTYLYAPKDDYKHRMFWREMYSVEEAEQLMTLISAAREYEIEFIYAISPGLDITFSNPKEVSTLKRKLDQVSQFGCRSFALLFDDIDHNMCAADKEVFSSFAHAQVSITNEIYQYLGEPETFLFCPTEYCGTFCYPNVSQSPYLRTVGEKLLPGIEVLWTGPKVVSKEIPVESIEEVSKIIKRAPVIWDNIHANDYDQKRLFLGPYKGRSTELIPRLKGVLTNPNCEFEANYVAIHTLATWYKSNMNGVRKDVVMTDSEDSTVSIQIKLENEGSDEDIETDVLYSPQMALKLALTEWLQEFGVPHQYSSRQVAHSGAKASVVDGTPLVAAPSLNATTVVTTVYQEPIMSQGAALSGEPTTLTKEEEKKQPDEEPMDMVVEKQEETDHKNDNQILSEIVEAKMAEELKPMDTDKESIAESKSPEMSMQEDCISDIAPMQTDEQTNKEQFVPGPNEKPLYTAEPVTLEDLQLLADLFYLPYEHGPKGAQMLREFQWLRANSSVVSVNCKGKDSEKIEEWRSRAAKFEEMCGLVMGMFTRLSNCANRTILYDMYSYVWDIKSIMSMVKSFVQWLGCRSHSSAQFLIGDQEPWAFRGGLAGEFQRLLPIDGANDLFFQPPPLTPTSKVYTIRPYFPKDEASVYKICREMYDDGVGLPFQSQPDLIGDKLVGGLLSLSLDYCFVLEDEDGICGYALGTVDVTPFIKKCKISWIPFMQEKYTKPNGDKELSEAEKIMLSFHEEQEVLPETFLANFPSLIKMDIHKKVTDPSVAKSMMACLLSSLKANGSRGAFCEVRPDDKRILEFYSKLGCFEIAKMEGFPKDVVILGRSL
Method: Human O-GlcNAcase Enzyme Inhibition Assay
The following reaction components were added to a final volume of 10 μL in McIlvaine's Buffer (pH 6.5):
20 nM His-Tagged hOGA and 10 μM Fluoroscein mono-beta-D-(2-deoxy-2-N-acetyl) glucopyranoside (FL-GlcNAc; Marker Gene Technologies Inc, Part #M1485). […] The amount of fluorescence measured was plotted against the concentration of inhibitor to produce a sigmoidal dose response curve, from which an IC50 was calculated.

[3] = cells expressing endogenous O-GlcNAcase (such as rat B35, rat PC-12, human SH-SY5Y), approximately 16 hours treatment; read-out: OGA cellular inhibition (EC50)
[4] = read-out: OGA enzyme inhibition (IC50)

| IC50 [2, 4] | Compound | EC50 [1, 3] | IC50 [2] | EC50 ([1]; read-out: OGA cellular inhibition (EC50); cells expressing endogenous O-GlcNAcase (such as rat B35, rat PC-12, human SH-SY5Y), approximately 16 hours treatment) |
| --- | --- | --- | --- | --- |
| 100 to 500 nM | CCNC1=N[C@@H]2[C@@H](O)[C@H](O)[C@@H](C(O)CCc3ccccc3)O[C@@H]2S1 (single isomer, unassigned) [compound no. 53] | 100 to 500 nM |  |  |
|  | CCNC1=N[C@@H]2[C@@H](O)[C@H](O)[C@@H](COC(c3ccccc3)(c3ccccc3)c3ccccc3)O[C@@H]2S1 [compound 43] | > 1000 nM | 500 to 1000 nM |  |
| < 100 nM | CCNC1=N[C@@H]2[C@@H](O)[C@H](O)[C@@H](Cn3cc(Cn4cccc4)nn3)O[C@@H]2S1 [compound 66] | > 1000 nM |  |  |
|  | CCNC1=N[C@@H]2[C@@H](O)[C@H](O)[C@@H](Cn3cc(C(O)c4ccccc4)nn3)O[C@@H]2S1 (some centres unmarked) [compound 68] | > 1000 nM | < 100 nM |  |
| 100 to 500 nM | CCNC1=N[C@@H]2[C@@H](O)[C@H](O)[C@@H](Cn3cc(Cn4c5ccccc5c5ccccc54)nn3)O[C@@H]2S1 [compound 69] | 100 to 500 nM |  |  |
|  | CCNC1=N[C@@H]2[C@@H](O)[C@H](O)[C@@H](Cn3cc(C(O)(c4ccccc4)C(F)(F)F)nn3)O[C@@H]2S1 (some centres unmarked) [compound 70] | > 1000 nM | < 100 nM |  |
|  | CCNC1=N[C@@H]2[C@@H](O)[C@H](O)[C@@H](Cn3cc(CN(C)c4ccccc4)nn3)O[C@@H]2S1 [compound 71] | > 1000 nM | 100 to 500 nM |  |
| < 100 nM | CCNC1=N[C@@H]2[C@@H](O)[C@H](O)[C@@H](Cn3cc(COc4cccc(Br)c4)nn3)O[C@@H]2S1 [compound 72] | 100 to 500 nM |  |  |
|  | CCNC1=N[C@@H]2[C@@H](O)[C@H](O)[C@@H](Cn3cc(COc4cccc(C#N)c4)nn3)O[C@@H]2S1 [compound 73] | 500 to 1000 nM | < 100 nM |  |
| < 100 nM | CCNC1=N[C@@H]2[C@@H](O)[C@H](O)[C@@H](Cn3cc(COc4cccc(O)c4)nn3)O[C@@H]2S1 [compound 74] | > 1000 nM |  |  |
|  | CCNC1=N[C@@H]2[C@@H](O)[C@H](O)[C@@H](Cn3cc(COc4cccc(CO)c4)nn3)O[C@@H]2S1 [compound 75] | > 1000 nM | < 100 nM |  |
|  | CCNC1=N[C@@H]2[C@@H](O)[C@H](O)[C@@H](Cn3cc(COc4cccc(C(C)O)c4)nn3)O[C@@H]2S1 (some centres unmarked) [compound 76] | > 1000 nM | < 100 nM |  |
| < 100 nM | CCNC1=N[C@@H]2[C@@H](O)[C@H](O)[C@@H](Cn3cc(COc4cccc(C)c4)nn3)O[C@@H]2S1 [compound 77] | 100 to 500 nM |  |  |
|  | CCNC1=N[C@@H]2[C@@H](O)[C@H](O)[C@@H](Cn3cc(COc4cccc(Cl)c4)nn3)O[C@@H]2S1 [compound 78] | < 100 nM | < 100 nM |  |
| < 100 nM | CCNC1=N[C@@H]2[C@@H](O)[C@H](O)[C@@H](Cn3cc(COc4cccc(F)c4)nn3)O[C@@H]2S1 [compound 79] | 100 to 500 nM |  |  |
|  | CCNC1=N[C@@H]2[C@@H](O)[C@H](O)[C@@H](Cn3cc(COc4cccc(OC)c4)nn3)O[C@@H]2S1 [compound 80] | 100 to 500 nM | < 100 nM |  |
|  | CCNC1=N[C@@H]2[C@@H](O)[C@H](O)[C@@H](Cn3cc(COc4cccc(S(C)(=O)=O)c4)nn3)O[C@@H]2S1 [compound 81] | > 1000 nM | < 100 nM |  |
|  | CCNC1=N[C@@H]2[C@@H](O)[C@H](O)[C@@H](Cn3cc(COc4ccccc4C#N)nn3)O[C@@H]2S1 [compound 82] | > 1000 nM | < 100 nM |  |
|  | CCNC1=N[C@@H]2[C@@H](O)[C@H](O)[C@@H](Cn3cc(COc4ccccc4O)nn3)O[C@@H]2S1 [compound 84] | > 1000 nM | 100 to 500 nM |  |
|  | CCNC1=N[C@@H]2[C@@H](O)[C@H](O)[C@@H](Cn3cc(COc4ccccc4Cl)nn3)O[C@@H]2S1 [compound 86] | < 100 nM | < 100 nM |  |
| < 100 nM | CCNC1=N[C@@H]2[C@@H](O)[C@H](O)[C@@H](Cn3cc(COc4ccccc4C)nn3)O[C@@H]2S1 [compound 87] | 500 to 1000 nM |  |  |
|  | CCNC1=N[C@@H]2[C@@H](O)[C@H](O)[C@@H](Cn3cc(COc4ccccc4OC)nn3)O[C@@H]2S1 [compound 88] | > 1000 nM | < 100 nM |  |
| < 100 nM | CCNC1=N[C@@H]2[C@@H](O)[C@H](O)[C@@H](Cn3cc(COc4ccccc4F)nn3)O[C@@H]2S1 [compound 89] | 100 to 500 nM |  |  |
|  | CCNC1=N[C@@H]2[C@@H](O)[C@H](O)[C@@H](Cn3cc(COc4ccc(C(C)O)cc4)nn3)O[C@@H]2S1 (some centres unmarked) [compound 90] | > 1000 nM | < 100 nM |  |
| 100 to 500 nM | CCNC1=N[C@@H]2[C@@H](O)[C@H](O)[C@@H](Cn3cc(COc4ccc(C)cc4)nn3)O[C@@H]2S1 [compound 91] | > 1000 nM |  |  |
| < 100 nM | CCNC1=N[C@@H]2[C@@H](O)[C@H](O)[C@@H](Cn3cc(COc4ccc(Cl)cc4)nn3)O[C@@H]2S1 [compound 92] | 100 to 500 nM |  |  |
|  | CCNC1=N[C@@H]2[C@@H](O)[C@H](O)[C@@H](CN=[N+]=[N-])O[C@@H]2S1 [compound no. 1, (3aR,5R,6S,7R,7aR)-5-(azidomethyl)-2-(ethylamino)-5,6,7,7a-tetrahydro-3aH-pyrano[3,2-d][1,3]thiazole-6,7-diol] |  |  | 100 to 500 nM |
